Laboratory results as given in patent US20260001914A1, “MACROCYCLIC PEPTIDES TARGETING KRAS” (Merck Sharp & Dohme LLC, priority 2022, published 2026).
*1 amine or outer side, *2 acyl side, *3 side chain or, on linkers, in order; H or OH if unused. Where a SMILES comes first, the peptide text is derived from it. [ ]: non-standard residue; d: D form. Ala(pyrimidin-5-yl) = N[C@@H](Cc1cncnc1)C(=O)O; X7 = C[C@H](N[*:1])C12CC(C(=O)[*:2])(C1)C2; Ala(cPent) = N[C@@H](CC1CCCC1)C(=O)O; Phe(2-F) = N[C@@H](Cc1ccccc1F)C(=O)O; NMe3Pal = CN[C@@H](Cc1cccnc1)C(=O)O; X1 = O=C(C12CC(CN[*:1])(C1)C2)[*:2]; PhLac = O=C(O)[C@@H](O)Cc1ccccc1; X4 = O=C([C@H](CCCF)N[*:1])[*:2]; 3Pal = N[C@@H](Cc1cccnc1)C(=O)O; Cba = N[C@@H](CC1CCC1)C(=O)O; hLeu = CC(C)CC[C@H](N)C(=O)O; NMeS = CN[C@@H](CO)C(=O)O; NMeA = CN[C@@H](C)C(=O)O; Nle = CCCC[C@H](N)C(=O)O

These compounds were tested against phosphorylation levels of ERK1/2 in AsPC-1 (homozygous KRAS-G12D) cells (Homo sapiens, UniProt P01116, G12D) (assay: Cellular phospho-ERK assay in AsPC-1 cells (Alpha Screen), assay medium without fetal bovine serum). Settings: phospho-ERK AlphaScreen, 18 h.
Chain of phosphorylation levels of ERK1/2 in AsPC-1 (homozygous KRAS-G12D) cells (P01116 1-186 G12D): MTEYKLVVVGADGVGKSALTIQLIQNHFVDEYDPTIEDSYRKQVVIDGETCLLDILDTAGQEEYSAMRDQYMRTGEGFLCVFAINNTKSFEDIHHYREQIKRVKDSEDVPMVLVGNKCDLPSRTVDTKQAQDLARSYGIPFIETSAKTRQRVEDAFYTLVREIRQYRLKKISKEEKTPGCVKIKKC
Assay type: cell-based
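Note: signal taken as phospho-ERK over total ERK per well, both detected in one multiplex bead assay, EC50 from four-parameter logistic fit of dose-response curves.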
Procedure: Assay plate was incubated at 37° C. 5% CO2 for the indicated length of time. […] Phosphorylated ERK and total ERK levels were detected by Alpha SureFire Ultra Multiplex pERK kit (PerkinElmer MPSU-PTERK) using 5 μL, acceptor bead mix and 5 μL donor bead mix, both prepared following the manufacturer's protocol. Plates were sealed using aluminum sealing tape (Costar 07-200-683) during incubation at ambient temperature with constant shaking at 300 rpm for 1 h (both acceptor and donor). Assay plates were read on a Envision Xcite Multilabel Reader (PerkinElmer 1040900) at ambient temperature, with emission at 535 nm (Total ERK) and emission at 615 nm (Phospho ERK). Ratio of pERK vs total ERK in each well was used as the final readout. Dose response curves and EC50 were analyzed using a 4-parameter logistic equation in GraphPad Prism software.

`CCCC[C@@H]1NC(=O)[C@H](Cc2cccnc2)NC(=O)[C@H](CO)N(C)C(=O)[C@H](Cc2ccccc2)OC(=O)C23CC(CNC(=O)[C@H](Cc4cccnc4)N(C)C(=O)[C@H](CCCC)NC(=O)[C@H](Cc4ccccc4F)NC1=O)(C2)C3` [compound 118, cyclo(FLac-NMeS-3Pal-Nle-Phe2F-Nle-NMe3Pal-amBCP)] (cyclo([3Pal][Nle][Phe(2-F)][Nle][NMe3Pal][X1][PhLac][NMeS])) and `CCCC[C@@H]1NC(=O)[C@H](Cc2cncnc2)NC(=O)[C@H](CO)N(C)C(=O)[C@H](Cc2ccccc2)OC(=O)C23CC(CNC(=O)[C@H](Cc4cccnc4)N(C)C(=O)[C@H](CCCC)NC(=O)[C@H](Cc4ccccc4F)NC1=O)(C2)C3` [compound 119, cyclo(FLac-NMeS-PyrimAla-Nle-Phe2F-Nle-NMe3Pal-amBCP)] (cyclo([NMe3Pal][X1][PhLac][NMeS][Ala(pyrimidin-5-yl)][Nle][Phe(2-F)][Nle])) cannot be ordered by EC50: over 50.8 µM for the first, over 50.8 µM for the second.

Going from `CCCC[C@@H]1NC(=O)[C@H](Cc2ccccc2F)NC(=O)[C@H](CCCF)NC(=O)[C@H](Cc2cccnc2)NC(=O)[C@H](C)N(C)C(=O)[C@H](Cc2ccccc2)OC(=O)C23CC(CNC(=O)[C@H](Cc4cccnc4)N(C)C1=O)(C2)C3` [compound 120, cyclo(FLac-NMeA-3Pal-NvaF-Phe2F-Nle-NMe3Pal-amBCP)] (cyclo([3Pal][X4][Phe(2-F)][Nle][NMe3Pal][X1][PhLac][NMeA])) to `CCCC[C@@H]1NC(=O)[C@H](Cc2cccnc2)NC(=O)[C@H](C)N(C)C(=O)[C@H](Cc2ccccc2)OC(=O)C23CC(CNC(=O)[C@H](Cc4cccnc4)N(C)C(=O)[C@H](CCC(C)C)NC(=O)[C@H](Cc4ccccc4F)NC1=O)(C2)C3` [compound 124, cyclo(FLac-NMeA-3Pal-Nle-Phe2F-hL-NMe3Pal-amBCP)] (cyclo([3Pal][Nle][Phe(2-F)][hLeu][NMe3Pal][X1][PhLac][NMeA])), the EC50 falls from over 50.8 µM to 4.65 µM. The second is the more potent here.

Going from `CCCC[C@@H]1NC(=O)[C@H](Cc2cncnc2)NC(=O)[C@H](C)N(C)C(=O)[C@H](Cc2ccccc2)OC(=O)C23CC(C2)(C3)[C@H](C)NC(=O)[C@H](Cc2cccnc2)N(C)C(=O)[C@H](CCCC)NC(=O)[C@H](Cc2ccccc2F)NC1=O` [compound 121, cyclo(FLac-NMeA-PyrimAla-Nle-Phe2F-Nle-NMe3Pal-SMeamBCP)] (cyclo([NMe3Pal][X7][PhLac][NMeA][Ala(pyrimidin-5-yl)][Nle][Phe(2-F)][Nle])) to `CCCC[C@@H]1NC(=O)[C@H](Cc2ccccc2F)NC(=O)[C@H](CCC(C)C)NC(=O)[C@H](Cc2cncnc2)NC(=O)[C@H](C)N(C)C(=O)[C@H](Cc2ccccc2)OC(=O)C23CC(CNC(=O)[C@H](Cc4cccnc4)N(C)C1=O)(C2)C3` [compound 127, cyclo(FLac-NMeA-PyrimAla-hL-Phe2F-Nle-NMe3Pal-amBCP)] (cyclo([NMe3Pal][X1][PhLac][NMeA][Ala(pyrimidin-5-yl)][hLeu][Phe(2-F)][Nle])), the EC50 rises from 23.4 µM to over 50.8 µM.

First: CCCC[C@@H]1NC(=O)[C@H](Cc2ccccc2F)NC(=O)[C@H](CC2CCC2)NC(=O)[C@H](Cc2cncnc2)NC(=O)[C@H](C)N(C)C(=O)[C@H](Cc2ccccc2)OC(=O)C23CC(CNC(=O)[C@H](Cc4cccnc4)N(C)C1=O)(C2)C3 [compound 125, cyclo(FLac-NMeA-PyrimAla-cBuA-Phe2F-Nle-NMe3Pal-amBCP)] (cyclo([Cba][Phe(2-F)][Nle][NMe3Pal][X1][PhLac][NMeA][Ala(pyrimidin-5-yl)]))
Second: CCCC[C@@H]1NC(=O)[C@H](Cc2ccccc2F)NC(=O)[C@H](CC2CCCC2)NC(=O)[C@H](Cc2cncnc2)NC(=O)[C@H](C)N(C)C(=O)[C@H](Cc2ccccc2)OC(=O)C23CC(CNC(=O)[C@H](Cc4cccnc4)N(C)C1=O)(C2)C3 [compound 126, cyclo(FLac-NMeA-PyrimAla-cPeA-Phe2F-Nle-NMe3Pal-amBCP)] (cyclo([Ala(cPent)][Phe(2-F)][Nle][NMe3Pal][X1][PhLac][NMeA][Ala(pyrimidin-5-yl)]))
The EC50 of the first is 2.6-fold higher: 45 µM for the first, 17.4 µM for the second.
